According to publication PMC5085647:

Assays:
U2OS cells = assay: LDH release cytotoxicity assay; format: cell-based, human; settings: BTZ 10 nM, positive control, n = 3
Experimental: The release of LDH (Lactate dehydrogenase) was used as a marker for cell toxicity. After treatment with 50 and 100 µM SsCEI 4 for 24 h, cleared supernatants were incubated with reaction buffer for 30 min at room temperature according to the manufacturer instructions (ab65393, LDH-Cytotoxicity Assay Kit II). Absorbance was measured at 490 nm and the cytotoxicity percentage was calculated as: [(Absorbancetest sample − Absorbancelow control)/(Absorbancehigh control − Absorbancelow control) × 100].

porcine liver APEH = molecular target: T1, porcine liver APEH (Sus scrofa, UniProt P19205); assay: APEH inhibition in cell-free assay (Ac-Ala-pNA substrate); format: biochemical; settings: Figure S1A
T1 sequence (P19205 1-732): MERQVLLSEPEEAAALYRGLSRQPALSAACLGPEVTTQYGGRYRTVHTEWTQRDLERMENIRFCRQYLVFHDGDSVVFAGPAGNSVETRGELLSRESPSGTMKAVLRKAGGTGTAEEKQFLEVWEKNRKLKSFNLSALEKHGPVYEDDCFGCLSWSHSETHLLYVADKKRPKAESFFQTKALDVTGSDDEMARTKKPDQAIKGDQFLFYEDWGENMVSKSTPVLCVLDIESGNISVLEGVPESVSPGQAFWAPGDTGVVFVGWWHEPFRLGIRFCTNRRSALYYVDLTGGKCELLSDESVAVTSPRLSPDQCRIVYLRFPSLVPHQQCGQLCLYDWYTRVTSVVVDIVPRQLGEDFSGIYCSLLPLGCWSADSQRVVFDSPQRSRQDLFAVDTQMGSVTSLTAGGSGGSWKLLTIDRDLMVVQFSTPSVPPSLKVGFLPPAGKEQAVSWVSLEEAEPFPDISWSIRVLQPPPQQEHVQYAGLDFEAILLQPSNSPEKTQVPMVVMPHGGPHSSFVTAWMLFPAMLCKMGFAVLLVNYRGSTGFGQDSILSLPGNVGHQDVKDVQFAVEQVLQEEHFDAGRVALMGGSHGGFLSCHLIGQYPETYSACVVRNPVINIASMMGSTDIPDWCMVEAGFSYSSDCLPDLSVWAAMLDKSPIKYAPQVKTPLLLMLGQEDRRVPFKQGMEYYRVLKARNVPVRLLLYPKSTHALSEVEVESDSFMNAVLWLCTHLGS

[1] = test system: Beclin-1 and LC3-II in U2OS cells; assay: Autophagy markers Beclin-1 and LC3-I/LC3-II (Western blot); format: cell-based, human; settings: Quercetin for 2 h and overnight
Experimental: For Western blotting analysis, protein aliquots (30 µg/lane) were run on SDS-PAGE (8% or 12.5%) and then electroblotted onto PVDF membranes (ImmobilonTM, Millipore, Milan, Italy). Membranes were next incubated with the specific primary antibodies (1 h at room temperature) and then incubated with the appropriate dilution of secondary antibodies (1 h at room temperature). Immunocomplexes were visualized by enhanced chemiluminescence and autoradiography according to the manufacturer protocol (Santa Cruz Biotechnology) and quantified by densitometric analysis with Image J software (NIH, Bethesda, […], USA), using the β-actin and Vinculin levels as loading control for normalization.
Figure S3. […] (A, left panel)
U2OS cells were treated with DMSO (C) or SsCEI 4 (50 and 100 µM) for 72 h. Then, cell lysates were […]
harvested and subjected to immunoblotting for Beclin-1; (A, right panel) Results of densitometry of […]
Beclin-1 bands are expressed as the mean of relationships between densitometries of Beclin-1 and […]
β-actin bands, used as loading control; (B) U2OS cells were treated with DMSO (C) or SsCEI 4 (50 […]
and 100 µM) for 72 h, and cell lysates were used to analyze LC3-II conversion by immunoblotting […]
using the specific antibody against LC3, which is able to recognize both the upper LC3-I band and […]
the lower LC3-II. […]

Row | Effect toward APEH activity (porcine liver APEH) | Structure (SMILES) | Cytotoxicity (LDH release in culture medium) (U2OS cells) | Beclin-1 and LC3-II levels (autophagy), positive control [1]
1 | completely ineffective | CC(C)C[C@H](NC(=O)[C@H](Cc1ccccc1)NC(=O)c1cnccn1)B(O)O [Bortezomib] | exceeding 200% | –
2 | – | O=c1c(O)c(-c2ccc(O)c(O)c2)oc2cc(O)cc(O)c12 [Quercetin] | – | strongly induced
